Data published in PMC7321161, “The Intriguing Effects of Substituents in the N-Phenethyl Moiety of Norhydromorphone: A Bifunctional Opioid from a Set of “Tail Wags Dog” Experiments” (Molecules, 2020).
Where “and” joins values, the source holds several entries; their conditions need not be identical. Equal entries are not always repeated. Entries after “also recorded” stand apart in the source; their conditions may differ. Where two headings read alike, the source gives them in different places.

Experiments:
squirrel monkeys [1] = assay: Warm-water tail-withdrawal latency in squirrel monkeys; type: in vivo, Saimiri sciureus; conditions: for ED50: Saimiri, in Primates; for Antinociceptive effect, tail withdrawal latency at 50, 52 and 55 °C: cumulative doses
[2] = Squirrel monkey ventilation (whole-body plethysmograph, air or 5% CO2); type: in vivo, Saimiri sciureus; conditions: male, monkey, in vivo, other: injection; squirrel monkeys; dose required to decrease minute volume in 5% CO2 to 50% of baseline; read-out: ED50 Respiratory Depression
Protocol: (§1) Gas (either air or a 5% CO2 in air mixture) was introduced to and extracted from the chamber at a constant flow rate of 5 L/min. Experimental sessions consisted of 4–6 consecutive 30 min cycles, each comprising a 15 min exposure to air followed by a 15 min exposure to 5% CO2. Drug effects were determined using cumulative dosing procedures, and injections were administered following each exposure to 5% CO2. Respiratory rate and tidal volume (mL/breath) were recorded over 1 min periods and were multiplied to provide minute volumes. Data from the last three minutes of each exposure to air or CO2 were averaged and used for analysis of drug effects on ventilation.

[3] = Operant responding (FR10 food reinforcement) in squirrel monkeys; conditions: male, monkey, in vivo
squirrel monkeys [4] = assay: as above; conditions: squirrel monkeys
Swiss Webster mice = assay: Respiration rate and arterial oxygen saturation in mice (MouseOx pulse oximeter); conditions: for Effect on oxygen saturation (SpO2) in mice: 6 min to 45 min post-injection, data not shown; for Effect on respiration rate in mice: normal air, s.c., 2i 0.01–0.1 mg/kg, morphine 10 mg/kg, AUC 6–45 min post injection, vs saline
μ-opioid receptor (MOR) = molecular target: T1, μ-opioid receptor (MOR) (Rattus norvegicus, UniProt P33535); assay: Opioid receptor binding, μ sites ([3H]DAMGO), rat brain homogenate
T1 construct: Frozen whole rat brains excluding cerebellum were thawed on ice; from tissue; host or cells: whole rat brain excluding cerebellum, membrane homogenate

δ-opioid receptor (DOR) = molecular target: T2, δ-opioid receptor (DOR) (Rattus norvegicus, UniProt P33533); assay: Opioid receptor binding, δ sites ([3H]DADLE), rat brain homogenate
T2 construct: Frozen whole rat brains excluding cerebellum were thawed on ice; from tissue; host or cells: whole rat brain excluding cerebellum, membrane homogenate

κ-opioid receptor (KOR) = molecular target: T3, κ-opioid receptor (KOR) (Rattus norvegicus, UniProt P34975); assay: Opioid receptor binding, κ sites ([3H]U69,593), rat brain homogenate; conditions: for Ki: KOR Binding (Ki), whole rat brain excluding cerebellum, [3H]U69,593, Ki ± SEM
T3 construct: Frozen whole rat brains excluding cerebellum were thawed on ice; from tissue; host or cells: whole rat brain excluding cerebellum, membrane homogenate

rat MOR = molecular target: T4, rat MOR (Rattus norvegicus, UniProt P33535); assay: Stimulation of [35S]GTPγS binding, C6 glioma cell membranes expressing MOR; type: biochemical; conditions: for MOR activity type in the [35S]GTPγS assay: antagonist activity assumed from high MOR affinity and lack of stimulation; for MOR % Stimulation, [35S]GTPγS: compared to standard maximal DAMGO
T4 construct: expressed in transfected cells; host or cells: C6 rat glioma cells, stably transfected; membranes

rat DOR = molecular target: T5, rat DOR (Rattus norvegicus, UniProt P33533); assay: Stimulation of [35S]GTPγS binding, C6 glioma cell membranes expressing DOR; type: biochemical; conditions: for EC50: DOR EC50, [35S]GTPγS, C6 cells expressing DOR, mean ± SEM; for DOR % Stimulation, [35S]GTPγS: compared to standard maximal DPDPE
T5 construct: expressed in transfected cells; host or cells: C6 rat glioma cells, stably transfected; membranes

[5] = molecular target: T6, human μ-opioid receptor (OPRM1) (Homo sapiens, UniProt P35372); assay: cell-based; conditions: for EC50: MOR cAMP Agonist Potency ± SEM; for Emax: OPRM1, read-out: MOR cAMP % Efficacy
T6 construct: host or cells: HitHunter CHO-K1 cells

[6] = molecular target: T7, human δ-receptor (OPRMD1) (Homo sapiens, UniProt P41143); assay: cell-based; type: cell-based; conditions: for Emax: CHO-K1, read-out: DOR cAMP % Efficacy; for EC50: DOR cAMP Agonist Potency ± SEM
T7 construct: host or cells: HitHunter CHO-K1 cells

[7] = molecular target: T8, human κ-opioid receptor (OPRK1) (Homo sapiens, UniProt P41145); assay: cell-based; conditions: for Emax: CHO-K1, read-out: KOR cAMP % Efficacy; for EC50: KOR cAMP Agonist Potency ± SEM
T8 construct: host or cells: HitHunter CHO-K1 cells

[8] = molecular target: T9, human μ-opioid receptor β-arrestin-2 (Homo sapiens, UniProt P35372); assay: cell-based; conditions: for Emax: read-out: MOR Mediated β-arrestin Recruitment (% Control, Emax DAMGO)
T9 construct: enzyme fragment for EFC (β-galactosidase ProLink fragment, by own knowledge of the PathHunter system); host or cells: PathHunter CHO cells

squirrel monkeys [9] = assay: Squirrel monkey ventilation (whole-body plethysmograph, air or 5% CO2); type: in vivo, Saimiri sciureus
Protocol: as §1

human KOR = molecular target: T10, human KOR (Homo sapiens, UniProt P41145); assay: Stimulation of [35S]GTPγS binding, CHO cell membranes expressing KOR; type: biochemical; conditions: for KOR EC50, [35S]GTPγS: CHO cells expressing KOR, mean ± SEM, DNS = no stimulation
T10 construct: expressed in transfected cells; membranes

[10] = dose required to increase tail withdrawal latency to 5 s, read-out: ED50 Antinociception (52 °C)

T10 sequence (P41145 whole entry): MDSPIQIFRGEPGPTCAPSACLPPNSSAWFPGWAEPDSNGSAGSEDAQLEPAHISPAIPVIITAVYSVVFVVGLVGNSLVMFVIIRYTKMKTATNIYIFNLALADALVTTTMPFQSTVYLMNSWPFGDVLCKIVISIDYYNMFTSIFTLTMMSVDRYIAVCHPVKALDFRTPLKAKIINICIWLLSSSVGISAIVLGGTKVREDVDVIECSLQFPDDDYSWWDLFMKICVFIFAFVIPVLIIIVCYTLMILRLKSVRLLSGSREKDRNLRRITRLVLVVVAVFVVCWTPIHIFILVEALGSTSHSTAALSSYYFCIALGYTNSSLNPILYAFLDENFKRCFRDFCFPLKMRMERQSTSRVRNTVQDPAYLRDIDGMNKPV
T8 sequence (P41145 whole entry): as above
T5 sequence (P33533 whole entry): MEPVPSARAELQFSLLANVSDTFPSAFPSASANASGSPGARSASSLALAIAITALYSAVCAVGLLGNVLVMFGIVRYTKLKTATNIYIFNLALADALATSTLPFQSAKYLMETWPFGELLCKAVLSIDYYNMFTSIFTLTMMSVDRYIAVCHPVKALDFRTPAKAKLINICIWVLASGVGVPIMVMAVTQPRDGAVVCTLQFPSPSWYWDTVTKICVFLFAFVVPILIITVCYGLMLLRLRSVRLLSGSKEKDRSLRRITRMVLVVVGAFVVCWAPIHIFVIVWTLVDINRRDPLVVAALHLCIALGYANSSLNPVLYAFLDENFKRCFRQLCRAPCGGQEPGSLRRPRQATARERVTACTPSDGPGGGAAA
T2 sequence (P33533 whole entry): as above
T9 sequence (P35372 whole entry, the tested form may be a part): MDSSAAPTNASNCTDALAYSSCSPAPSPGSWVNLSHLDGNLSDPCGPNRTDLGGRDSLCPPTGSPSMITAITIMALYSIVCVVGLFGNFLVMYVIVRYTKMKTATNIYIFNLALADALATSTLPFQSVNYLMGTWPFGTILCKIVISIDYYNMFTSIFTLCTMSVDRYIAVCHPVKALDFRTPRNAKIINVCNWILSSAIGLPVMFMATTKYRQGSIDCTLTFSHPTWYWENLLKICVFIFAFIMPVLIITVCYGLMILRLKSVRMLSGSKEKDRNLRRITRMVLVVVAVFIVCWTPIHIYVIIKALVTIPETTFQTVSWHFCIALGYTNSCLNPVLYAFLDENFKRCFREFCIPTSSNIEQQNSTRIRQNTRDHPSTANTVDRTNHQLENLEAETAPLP
T6 sequence (P35372 whole entry): as the sequence (P35372 whole entry, the tested form may be a part) above
T7 sequence (P41143 whole entry): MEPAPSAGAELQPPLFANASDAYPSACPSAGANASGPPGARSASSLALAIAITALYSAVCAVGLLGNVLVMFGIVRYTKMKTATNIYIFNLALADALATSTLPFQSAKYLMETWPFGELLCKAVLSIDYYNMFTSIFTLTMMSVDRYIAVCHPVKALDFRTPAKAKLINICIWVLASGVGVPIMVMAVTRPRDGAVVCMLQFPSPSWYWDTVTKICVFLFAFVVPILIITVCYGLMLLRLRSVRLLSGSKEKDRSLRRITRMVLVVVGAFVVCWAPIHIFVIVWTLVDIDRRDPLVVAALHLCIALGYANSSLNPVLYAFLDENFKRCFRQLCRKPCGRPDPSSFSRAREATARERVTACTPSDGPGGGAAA
T1 sequence (P33535 whole entry): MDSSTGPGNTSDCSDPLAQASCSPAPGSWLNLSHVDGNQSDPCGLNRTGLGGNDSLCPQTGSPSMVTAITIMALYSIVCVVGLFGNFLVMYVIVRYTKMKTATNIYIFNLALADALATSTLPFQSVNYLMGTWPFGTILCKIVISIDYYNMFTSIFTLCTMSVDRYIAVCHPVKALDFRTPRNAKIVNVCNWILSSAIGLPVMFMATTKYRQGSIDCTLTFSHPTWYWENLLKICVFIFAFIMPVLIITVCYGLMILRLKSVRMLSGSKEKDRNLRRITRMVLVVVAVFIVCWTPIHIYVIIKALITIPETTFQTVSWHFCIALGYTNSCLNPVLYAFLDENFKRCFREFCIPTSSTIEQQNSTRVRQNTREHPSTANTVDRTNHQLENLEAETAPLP
T4 sequence (P33535 whole entry): as above
T3 sequence (P34975 whole entry): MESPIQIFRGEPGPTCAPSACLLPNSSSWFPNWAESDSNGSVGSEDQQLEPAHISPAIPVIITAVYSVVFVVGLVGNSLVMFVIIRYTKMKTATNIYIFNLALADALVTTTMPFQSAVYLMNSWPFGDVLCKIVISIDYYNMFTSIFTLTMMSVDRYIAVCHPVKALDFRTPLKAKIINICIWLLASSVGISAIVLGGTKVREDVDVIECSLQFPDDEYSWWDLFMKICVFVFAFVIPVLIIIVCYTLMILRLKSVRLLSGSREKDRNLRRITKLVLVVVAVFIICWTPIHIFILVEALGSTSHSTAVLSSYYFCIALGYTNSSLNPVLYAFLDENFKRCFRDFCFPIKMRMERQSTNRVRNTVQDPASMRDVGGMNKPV

SMILES	ED50 (squirrel monkeys [1]; [10])	Antinociceptive effect, tail withdrawal latency at 50, 52 and 55 °C (squirrel monkeys [1])	ED50 [2]	Ki (μ-opioid receptor (MOR))	Ki (δ-opioid receptor (DOR))	EC50 (rat MOR)	MOR activity type in the [35S]GTPγS assay (rat MOR)	MOR % Stimulation, [35S]GTPγS (rat MOR)	EC50 (rat DOR)	DOR % Stimulation, [35S]GTPγS (rat DOR)	EC50 [5]	Emax [5]	Emax [6]	EC50 [6]	Emax [7]	EC50 [7]	Bias Factor [8]	EC50 [8]	Emax [8]	Ki (κ-opioid receptor (KOR))	also measured
CN1CC[C@]23c4c5ccc(O)c4O[C@H]2[C@@H](O)C=C[C@H]3[C@H]1C5 [Morphine, reference compound]	0.14 mg/kg	full antinociceptive effects at all three water temperatures	1.06 mg/kg																		ED50 [3]: 1.3 mg/kg; Behavioral impairment (decreases in operant performance, reinforcers obtained) (squirrel monkeys [4]): dose-related behavioral impairment; Effect on oxygen saturation (SpO2) in mice (Swiss Webster mice): neither morphine nor 2i had any effect; Effect on respiration rate in mice (Swiss Webster mice): significantly reduced respiratory rate; Effect on respiration rate in mice (Swiss Webster mice; listed as morphine): significantly reduced; also recorded: significantly decreased respiratory rate
O=C1CCC2C3Cc4ccc(O)c5c4[C@@]2(CCN3CCc2ccc(Cl)cc2)[C@H]1O5 (stereo partly drawn) [Compound 2i, (7aR,12bS)-3-(4-Chlorophenethyl)-9-hydroxy-2,3,4,4a,5,6-hexahydro-1H-4,12-methanobenzofuro[3,2-e]-isoquinolin-7(7aH)-one]	0.015 mg/kg	full effect at moderate (50 °C) and hot (52 °C) but not at very hot (55 °C) water temperatures	0.057 mg/kg	1.09 ± 0.06 nM	7.89 ± 1.1 nM	2 ± 1 nM	potent partial MOR agonist	39.0 ± 2.1%	2.4 ± 0.7 nM	83.8 ± 3.7%	0.05 nM	98.8%	84.8%	0.53 nM	76.6%	55 nM and 55.2 nM	0.82	2.44 nM	44.8%		δ/μ ratio in opioid receptor binding studies (δ-opioid receptor (DOR); DOR Ki / MOR Ki): about 7; KOR Binding, exploratory binding assay (κ-opioid receptor (KOR); radioligand displacement at 100 nM): NT (NT = not tested—inactive (<50% activity at 100 nM concentration in exploratory binding assays (displaced less than half of radioligand)); DOR activity type in the [35S]GTPγS assay (rat DOR): potent full DOR agonist; EC50 δ/μ ratio in the cAMP assay [6]: 10; ED50 (squirrel monkeys [1]; read-out: ED50 Antinociception (50 °C), tail withdrawal, 50 °C water): 0.01 mg/kg; Effect on ventilation (minute volume) during exposure to 5% CO2 mixed in air (hypercapnia) (squirrel monkeys [9]): significantly reduced minute volume in 5% CO2; also recorded: respiration was depressed; also recorded: significantly decreased ventilation; Effect on respiratory rate or ventilation (minute volume) during exposure to air alone (squirrel monkeys [9]; 2i 0.003–0.1 mg/kg, morphine 0.03–3.0 mg/kg): did not depress respiration; also recorded: neither 2i (0.003–0.1 mg/kg) nor morphine (0.03–3.0 mg/kg) had effects; ED50 [3]: 0.022 mg/kg; Behavioral impairment (decreases in operant performance, reinforcers obtained) (squirrel monkeys [4]): dose-related behavioral impairment; Effect on oxygen saturation (SpO2) in mice (Swiss Webster mice): neither morphine nor 2i had any effect; Effect on respiration rate in mice (Swiss Webster mice): did not depress respiration rate; also recorded: no effect on respiration rate
O=C1CCC2C3Cc4ccc(O)c5c4[C@@]2(CCN3CCc2cccc(F)c2)[C@H]1O5 (stereo partly drawn) [Compound 2f, (7aR,12bS)-9-Hydroxy-3-(3-fluorophenethyl)-2,3,4,4a,5,6-hexahydro-1H-4,12-methanobenzofuro[3,2-e]-isoquinolin-7(7aH)-one]				0.49 ± 0.07 nM	4.48 ± 0.43 nM	2.4 ± 0.3 nM		56.8 ± 7.5%	54.1 ± 4.7 nM	86.7 ± 8.0%	0.06 nM	102%	96.9%	1.64 nM	58%	56.5 nM	1.94	6.2 nM	40.3%	30.2 ± 2.3 nM	KOR EC50, [35S]GTPγS (human KOR): DNS
O=C1CCC2C3Cc4ccc(O)c5c4[C@@]2(CCN3CCc2ccc(F)cc2)[C@H]1O5 (stereo partly drawn) [Compound 2e, (7aR,12bS)-9-Hydroxy-3-(4-fluorophenethyl)-2,3,4,4a,5,6-hexahydro-1H-4,12-methanobenzofuro[3,2-e]-isoquinolin-7(7aH)-one]				0.87 ± 0.1 nM	13.4 ± 0.9 nM	2.5 ± 0.3 nM	potent partial MOR agonist	42.6 ± 2.9%	64.2 ± 9.9 nM		0.17 nM	101%	98.1%	2.58 nM	80%	19.9 nM	1.39	15.5 nM	45.8%	44.3 ± 6 nM	DOR activity type in the [35S]GTPγS assay (rat DOR): weak partial DOR agonist; KOR EC50, [35S]GTPγS (human KOR): DNS
Cc1ccc(CCN2CC[C@]34c5c6ccc(O)c5O[C@H]3C(=O)CCC4C2C6)cc1 (stereo partly drawn) [Compound 2c, (7aR,12bS)-9-Hydroxy-3-(4-methylphenethyl)-2,3,4,4a,5,6-hexahydro-1H-4,12-methanobenzofuro[3,2-e]-isoquinolin-7(7aH)-one]				0.86 ± 0.12 nM	6.34 ± 0.65 nM	1.9 ± 0.7 nM	potent partial MOR agonist	55.6 ± 2.1%	23.1 ± 6.9 nM	95% and 95.4 ± 3.8%	0.08 nM	102%	95%	1 nM	99.4%	8.7 nM and 8.71 nM	1.12	5.6 nM	46.5%	44 ± 3.8 nM	EC50 (human KOR): 38.1 ± 10.6 nM; KOR % Stimulation, [35S]GTPγS (human KOR; compared to standard maximal U69593): 31.4 ± 4.2%
